# Read-outs that look alike come from different tables or passages of the source.
# Assays:
# [1] = for temperature of 10 hour half-life: in trichlorobenzene; for t1/2: trichlorobenzene; for 10 hr. t1/2 temp.: Table II, solvent not given
# [2] = test system: rat; conditions: in rat; decomposition residue of AIBN; cited from earlier work
# [3] = Preliminary toxicological studies compared with AIBN
# Text: In general, the new compositions of the present invention eliminate these problems. The tertiary-(alkyl, cycloalkyl, bicycloalkyl or aralkyl) group on the one side of the azo function lowers the melting point of these compounds so that most of them are liquids or low melting solids which can be handled in the melted state. In addition, this tertiary group increases the solubility of these azos so that most of them are completely miscible with the common organic solvents including petroleum hydrocarbons. Thus, no dusting, metering, incorporating, mixing, and dispersing problems are encountered in using these new compositions. […] The less toxic nature of the new compositions coupled with their liquid and high solubility properties allows them to be used in many applications where AIBN cannot be used.
# [4] = Thermal decomposition half-life in odorless mineral spirits; type: physicochemical
# [5] = Solubility in petroleum / hydrocarbon / common organic solvents; conditions: even at temperatures as low as -20°C
# [6] = Thermal decomposition half-life in water; type: physicochemical
# [7] = Stability in unsaturated polyester-styrene resin at room temperature; type: physicochemical; conditions: unsaturated polyester-styrene resin of Example III
# Procedure: An unsaturated polyester resin was made by reacting maleic anhydride (1.0 mole), phthalic anhydride (1.0 mole), and propylene glycol (2.2 moles) until an acid number of 45-50 was obtained. To this was added hydroquinone at a 0.013% concentration. Seven parts of this unsaturated polyester was diluted with 3 parts of monomeric styrene to obtain a homogeneous blend having a viscosity of 13.08 poise and a specific gravity of 1.14.
compound,measurement,setting,value
CC(C)(C)N=NC(C)(C#N)C1CC1 (stereo not drawn) [1-t-Butylazo-1-cyano-1-cyclopropylethane],temperature of 10 hour half-life,[1],62 °C
"CC(C)(C#N)C(C)(C)C#N [2,2,3,3-tetramethylsuccinonitrile]",LD50,[2],30 mg/kg
CC(C)(C)N=NC(C)(C#N)COC(=O)c1ccccc1 (stereo not drawn) [2-t-Butylazo-2-cyano-1-benzoyloxypropane],temperature of 10 hour half-life,[1],approximately 77 °C
CC(C)C(=O)OCC(C)(C#N)N=NC(C)(C)C (stereo not drawn) [2-t-Butylazo-2-cyano-1-isobutyroyloxypropane],temperature of 10 hour half-life,[1],approximately 79 °C
CC(C)(C)N=NC(C)(C#N)COC(=O)C(C)(C)C (stereo not drawn) [2-t-Butylazo-2-cyano-1-pivaloyloxypropane],temperature of 10 hour half-life,[1],approximately 75 °C
CC(C)CCC(C)(C#N)N=NC(C)(C)C (stereo not drawn) [2-t-Butylazo-2-cyano-5-methylhexane],temperature of 10 hour half-life,[1],approximately 78 °C
CC(C)(C)N=NC(C)(C)C(N)=NO [2-t-Butylazo-2-methylpropionamidoxime],temperature of 10 hour half-life,[1],approximately 90 °C
"CC(C)(C)N=NC1(C#N)CCCCCC1 [Example 1-t-Butylazo-1-cyanocycloheptane, 1-t-Butylazo-1-cyanocycloheptane]",temperature of 10 hour half-life,[1],approximately 68 °C
"CC(C)(C)N=NC1(C#N)CCCCCCC1 [Example 1-t-Butylazo-1-cyanocyclooctane, 1-t-Butylazo-1-cyanocyclooctane]",temperature of 10 hour half-life,[1],approximately 55 °C
"CC(C)(C)N=NC(C)(C)C#N [Example I, 2-t-Butylazo-2-cyanopropane]",toxicity compared with AIBN,[3],significantly less toxic than AIBN
same,temperature of 10 hour half-life,[1],79 °C
same,t1/2,[1]; 70 °C,40.5 h
same,t1/2,[1]; 78.8 °C,10.0 h
same,t1/2,[1]; 90 °C,2.0 h
same,t1/2,[1]; 100 °C,0.54 h
same,t1/2,[1]; 110 °C,0.20 h
same,temperature of 10 hour half-life,[4],86 °C
"CC(C)(N=NC1(C#N)CCCCC1)c1ccccc1 [Example LVI, 1-t-Cumylazo-1-cyanocyclohexane]",temperature of 10 hour half-life,[1],approximately 62.5 °C
"CC(C)CC(C)(C#N)N=NC(C)(C)c1ccccc1 (stereo not drawn) [Example LVII, 2-t-Cumylazo-2-cyano-4-methylpentane]",temperature of 10 hour half-life,[1],approximately 33 °C
"CC(C)(C)N=NC(C)(C)C(N)=O [Example LXIV, 2-t-Butylazo-2-carbamylpropane]",temperature of 10 hour half-life,[1],110 °C
"CC(C)(C)N=NC1(C#N)CCCCC1 [Example V, 1-t-Butylazo-1-cyanocyclohexane]",temperature of 10 hour half-life,[1],96 °C
same,t1/2,[1]; 96.3 °C,10.0 h
same,t1/2,[1]; 100 °C,6.7 h
same,t1/2,[1]; 110 °C,2.3 h
same,t1/2,[1]; 120 °C,0.75 h
"CCC(C)(C#N)N=NC(C)(C)C (stereo not drawn) [Example VI, 2-t-Butylazo-2-cyanobutane]",temperature of 10 hour half-life,[1],around 80 °C
same,solubility in hydrocarbon solvents,[5],very soluble
same,temperature of 10 hour half-life,[4],around 82 °C
"CC(C)CC(C#N)(CC(C)C)N=NC(C)(C)C [Example VII, 4-t-Butylazo-4-cyano-2,6-dimethylheptane]",temperature of 10 hour half-life,[1],61 °C
"CC1CC(C)(C)CC(C#N)(N=NC(C)(C)C)C1 (stereo not drawn) [Example VIII, 1-t-Butylazo-1-cyano-3,3,5-trimethylcyclohexane]",temperature of 10 hour half-life,[1],78 °C
"CC(C)(C)N=NC(C)(C#N)CCC(=O)O (stereo not drawn) [Example X, 4-t-Butylazo-4-cyanovaleric Acid]",temperature of 10 hour half-life,[6],73 °C
same,temperature of 10 hour half-life,[1],76 °C
"CC(C)(C#N)N=NC(C)(C)c1ccccc1 [Example XII, 2-t-Cumylazo-2-cyanopropane]",temperature of 10 hour half-life,[1],50 °C
"CC(C)CC(C)(C#N)N=NC(C)(C)C (stereo not drawn) [Example XXXII, 2-t-Butylazo-2-cyano-4-methylpentane]",temperature of 10 hour half-life,[1],approximately 70 °C
same,period stable in the resin,[7],exceeding 1 month
"COC(C)(C)CC(C)(C#N)N=NC(C)(C)C (stereo not drawn) [Example XXXIV, 2-t-Butylazo-2-cyano-4-methoxy-4-methylpentane]",temperature of 10 hour half-life,[1],approximately 55 °C
"CC(C)(C)N=NC(C)(C#N)C(C)(C)C (stereo not drawn) [IX, 2-t-Butylazo-2-cyano-3,3-dimethylbutane]",temperature of 10 hour half-life,[1],80 °C
"CCCCCCC(C)(C#N)N=NC(C)(C)C (stereo not drawn) [LI, 2-t-butylazo-2-cyanooctane]",10 hr. t1/2 temp.,[1],79 °C
"CC1(N=NC2(C#N)CCCCC2)CCCCC1 [LXII, 1-t-(Methylcyclohexyl)azo-1-cyanocyclohexane]",temperature of 10 hour half-life,[1],approximately 100 °C
"CC(C)(C)N=NC1(C(N)=O)CCCCC1 [LXIII, 1-t-Butylazo-1-carbamylcyclohexane]",temperature of 10 hour half-life,[1],111 °C
"CCC(C)(C)N=NC(C)(C)C#N [XIV, 2-t-Amylazo-2-cyanopropane]",temperature of 10 hour half-life,[1],79 °C
"CC(C)(C)CC(C)(C#N)N=NC(C)(C)C (stereo not drawn) [XLI, 2-t-butylazo-2-cyano-4,4-dimethylpentane]",10 hr. t1/2 temp.,[1],52 °C
"CC(C)(C)N=NC(C)(C#N)c1ccccc1 (stereo not drawn) [XLII, 1-t-butylazo-1-cyano-1-phenylethane]",10 hr. t1/2 temp.,[1],~ 30 °C
"CC(C)(C)N=NC1(C#N)C(C)(C)C(=O)C1(C)C [XLIII, 3-t-butylazo-3-cyano-2,2,4,4-tetramethylcyclobutanone]",10 hr. t1/2 temp.,[1],115 °C
"CCC(C)(C)N=NC1(C#N)CCCCC1 [XV, 1-t-Amylazo-1-cyanocyclohexane]",temperature of 10 hour half-life,[1],approximately 94 °C

# Source: patent US3931143A, “Unsymmetrical aliphatic monoazo compounds” (priority 1971, dated 1976)
